Results: ChEMBL document CHEMBL1201862, “PubChem BioAssay data set” (2004)
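How tested: cells in 96-well plates exposed to compound for 48 hours at five concentrations. At the GI50, growth is halved.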 Activity calls are given as the source filed them. No stated cut-off is given here; in the data, active = GI50 up to about 1.1 µM and inactive = higher.

Legend:
Assay in all cases: NCI-60 cell line screen, 48 h
KM12 = system: KM12
NCI-H460 = system: NCI-H460
K562 = system: K562
NCI-H23 = system: NCI-H23
U-251 = system: U-251
UO-31 = system: UO-31
SK-OV-3 = system: SK-OV-3
RPMI-8226 = system: RPMI-8226
CAKI-1 = system: CAKI-1
MCF7 = system: MCF7
SK-MEL-5 = system: SK-MEL-5
PC-3 = system: PC-3
OVCAR-5 = system: OVCAR-5
SF-539 = system: SF-539
MDA-MB-231 = system: MDA-MB-231
EKVX = system: EKVX
IGROV-1 = system: IGROV-1
HOP-62 = system: HOP-62
MDA-N = system: MDA-N
SNB-19 = system: SNB-19
ACHN = system: ACHN
SW-620 = system: SW-620
NCI-H522 = system: NCI-H522
DU-145 = system: DU-145
SF-268 = system: SF-268
SK-MEL-2 = system: SK-MEL-2
HCC 2998 = system: HCC 2998
MOLT-4 = system: MOLT-4
OVCAR-3 = system: OVCAR-3
SNB-75 = system: SNB-75
SK-MEL-28 = system: SK-MEL-28
BT-549 = system: BT-549
HL-60 = system: HL-60
A498 = system: A498
UACC-257 = system: UACC-257
HOP-92 = system: HOP-92
RXF 393 = system: RXF 393
SF-295 = system: SF-295
Malme-3M = system: Malme-3M
786-0 = system: 786-0
MDA-MB-435 = system: MDA-MB-435
NCI-H226 = system: NCI-H226
A549 = system: A549
HT-29 = system: HT-29
M14 = system: M14
TK-10 = system: TK-10
HCT-116 = system: HCT-116
OVCAR-8 = system: OVCAR-8
OVCAR-4 = system: OVCAR-4
NCI/ADR-RES = system: NCI/ADR-RES
COLO 205 = system: COLO 205
UACC-62 = system: UACC-62
CCRF-CEM = system: CCRF-CEM
Hs-578T = system: Hs-578T
T47D = system: T47D
SR = system: SR
SN12C = system: SN12C
LOX IMVI = system: LOX IMVI
HCT-15 = system: HCT-15

## Cc1noc2nnn(-c3ccc(Cl)cc3)c(=O)c12
KM12
  GI50: 11.7 µM (inactive)
NCI-H460
  GI50: 6.43 µM (inactive)
K562
  GI50: 1.3 µM (inactive)
NCI-H23
  GI50: 4.75 µM (inactive)
U-251
  GI50: 4.92 µM (inactive)
UO-31
  GI50: 3.61 µM (inactive)
SK-OV-3
  GI50: 5.52 µM (inactive)
RPMI-8226
  GI50: 0.36 µM (active)
CAKI-1
  GI50: 2.05 µM (inactive)
MCF7
  GI50: 2.67 µM (inactive)
SK-MEL-5
  GI50: 3.82 µM (inactive)
PC-3
  GI50: 3.71 µM (inactive)
OVCAR-5
  GI50: 7.23 µM (inactive)
SF-539
  GI50: 0.223 µM (active)
MDA-MB-231
  GI50: 8.95 µM (inactive)
EKVX
  GI50: 7.11 µM (inactive)
IGROV-1
  GI50: 5.33 µM (inactive)
HOP-62
  GI50: 12.8 µM (inactive)
MDA-N
  GI50: 6.01 µM (inactive)
SNB-19
  GI50: 13.3 µM (inactive)
ACHN
  GI50: 3.59 µM (inactive)
SW-620
  GI50: 0.67 µM (active)
NCI-H522
  GI50: 0.5 µM (active)
DU-145
  GI50: 3.72 µM (inactive)
SF-268
  GI50: 6.98 µM (inactive)
SK-MEL-2
  GI50: 3.24 µM (inactive)
HCC 2998
  GI50: 2.15 µM (inactive)
MOLT-4
  GI50: 0.364 µM (active)
OVCAR-3
  GI50: 2.36 µM (inactive)
SNB-75
  GI50: 1.1 µM (active)
SK-MEL-28
  GI50: 10.8 µM (inactive)
BT-549
  GI50: 3.16 µM (inactive)
HL-60
  GI50: 1.39 µM (inactive)
A498
  GI50: 13.5 µM (inactive)
UACC-257
  GI50: 7.5 µM (inactive)
HOP-92
  GI50: 6.4 µM (inactive)
RXF 393
  GI50: 0.879 µM (active)
SF-295
  GI50: 12.3 µM (inactive)
Malme-3M
  GI50: 11.9 µM (inactive)
786-0
  GI50: 2.45 µM (inactive)
MDA-MB-435
  GI50: 2.95 µM (inactive)
NCI-H226
  GI50: 2.61 µM (inactive)
A549
  GI50: 12.1 µM (inactive)
HT-29
  GI50: 4.42 µM (inactive)
M14
  GI50: 11.8 µM (inactive)
TK-10
  GI50: 9.06 µM (inactive)
HCT-116
  GI50: 2.89 µM (inactive)
OVCAR-8
  GI50: 2.69 µM (inactive)
OVCAR-4
  GI50: 3.18 µM (inactive)
NCI/ADR-RES
  GI50: 4.17 µM (inactive)
COLO 205
  GI50: 2.96 µM (inactive)
UACC-62
  GI50: 4.43 µM (inactive)
CCRF-CEM
  GI50: 0.355 µM (active)
Hs-578T
  GI50: 18.6 µM (inactive)
T47D
  GI50: 0.614 µM (active)
SR
  GI50: 1.21 µM (inactive)
SN12C
  GI50: 3.89 µM (inactive)
LOX IMVI
  GI50: 2.5 µM (inactive)
HCT-15
  GI50: 2.31 µM

## COc1cc(CCNC2=CC(=O)c3ncccc3C2=O)ccc1O
KM12
  GI50: 5.25 µM (inactive)
NCI-H460
  GI50: 1.02 µM (active)
K562
  GI50: 2.21 µM (inactive)
NCI-H23
  GI50: 0.828 µM (active)
U-251
  GI50: 2.09 µM (inactive)
UO-31
  GI50: 5.3 µM (inactive)
SK-OV-3
  GI50: 12.6 µM (inactive)
RPMI-8226
  GI50: 6.76 µM (inactive)
CAKI-1
  GI50: 3.94 µM (inactive)
MCF7
  GI50: 2.44 µM (inactive)
SK-MEL-5
  GI50: 0.54 µM (active)
PC-3
  GI50: 2.65 µM (inactive)
OVCAR-5
  GI50: 8.91 µM (inactive)
SF-539
  GI50: 3.04 µM (inactive)
MDA-MB-231
  GI50: 2.37 µM (inactive)
EKVX
  GI50: 8.85 µM (inactive)
IGROV-1
  GI50: 2.29 µM (inactive)
HOP-62
  GI50: 2.39 µM (inactive)
MDA-N
  GI50: 1.37 µM (inactive)
SNB-19
  GI50: 3.48 µM (inactive)
ACHN
  GI50: 4.71 µM (inactive)
SW-620
  GI50: 2.84 µM (inactive)
NCI-H522
  GI50: 2.08 µM (inactive)
DU-145
  GI50: 3.6 µM (inactive)
SF-268
  GI50: 8.11 µM (inactive)
SK-MEL-2
  GI50: 2.53 µM (inactive)
HCC 2998
  GI50: 4.23 µM (inactive)
MOLT-4
  GI50: 2.99 µM (inactive)
OVCAR-3
  GI50: 1.22 µM (inactive)
SNB-75
  GI50: 1.63 µM (inactive)
SK-MEL-28
  GI50: 2 µM (inactive)
BT-549
  GI50: 1.46 µM (inactive)
HL-60
  GI50: 3.01 µM (inactive)
A498
  GI50: 16.6 µM (inactive)
UACC-257
  GI50: 1.9 µM (inactive)
HOP-92
  GI50: 19.2 µM (inactive)
RXF 393
  GI50: 5.45 µM (inactive)
SF-295
  GI50: 1.6 µM (inactive)
Malme-3M
  GI50: 0.753 µM (active)
786-0
  GI50: 4.2 µM (inactive)
MDA-MB-435
  GI50: 1.44 µM (inactive)
NCI-H226
  GI50: 2.7 µM (inactive)
A549
  GI50: 2.1 µM (inactive)
HT-29
  GI50: 4.2 µM (inactive)
M14
  GI50: 1.71 µM (inactive)
TK-10
  GI50: 26.9 µM (inactive)
HCT-116
  GI50: 3.17 µM (inactive)
OVCAR-8
  GI50: 2.41 µM (inactive)
OVCAR-4
  GI50: 4.79 µM (inactive)
NCI/ADR-RES
  GI50: 2.93 µM (inactive)
COLO 205
  GI50: 18.6 µM (inactive)
UACC-62
  GI50: 1.96 µM (inactive)
CCRF-CEM
  GI50: 3.56 µM (inactive)
Hs-578T
  GI50: 2.36 µM (inactive)
T47D
  GI50: 21.8 µM (inactive)
SR
  GI50: 3.48 µM (inactive)
SN12C
  GI50: 1.97 µM (inactive)
LOX IMVI
  GI50: 0.65 µM (active)
HCT-15
  GI50: 1.94 µM
